According to US10336732B2, “1-heterocyclyl isochromanyl compounds and analogs for treating CNS disorders” (Sunovion Pharmaceuticals Inc., priority 2015, dated 2019):

Experiments:
[1] = test system: sigma (non-selective); assay: In vitro radioligand binding assay, sigma (non-selective), [3H]DTG, Jurkat cells; conditions: Jurkat cells (endogenous)
Protocol: (§1) Certain compounds were tested by in vitro binding assays using standard procedures. […] These receptors and assays are well known to those skilled in the art, as exemplified by the following: Abramovitz, M. et al. (2000), Biochem. Biophys. Acta., 1483: 285-293 (EP4, IP (PGI2)); Aharony, D. et al. (1993), Mol. Pharmacol., 44: 356-363 (NK2); Ardati, A. et al. (1997), Mol. Pharmacol., 51: 816-824 (NOP (ORL1)); Bignon, E. et al. (1999), J. Pharmacol. Exp. Ther. 289: 742-751 (CCK1 (CCKA)); Bloomquist, B. T. et al. (1998), Biochem. Biophys. Res. Commun., 243: 474-479 (GAL2); Brockhaus, M. et al. (1990), Proc. Natl. Acad. Sci. U.S.A., 87: 3127-3131 (TNF-α); Brown, G. B. (1986), J. Neurosci., 6: 2064-2070 (Na+ channel (site 2)); Buchan, K. W. et al. (1994), Brit. J. Pharmacol., 112: 1251-1257 (ETA); Cesura, A. M. et al. (1990), Mol. Pharmacol., 37: 358-366 (MAO-A); Choi, D. S. et al. (1994), FEBS Lett., 352: 393-399 (5-HT2B); Clark, A. F. et al. (1996), Invest. Ophtalmol. Vis. […]

[2] = test system: GABA (non-selective); assay: In vitro radioligand binding assay, GABA (non-selective), [3H]GABA; conditions: rat cerebral cortex membranes
Protocol: as §1

[3] = target: T1, 5-HT5a (Homo sapiens, UniProt P47898); assay: In vitro radioligand binding assay, 5-HT5a, [3H]LSD; conditions: human recombinant (HEK-293 cells)
T1 construct: expressed in transfected cells; host or cells: HEK-293 cells
Protocol: as §1

T1 sequence (P47898 whole entry): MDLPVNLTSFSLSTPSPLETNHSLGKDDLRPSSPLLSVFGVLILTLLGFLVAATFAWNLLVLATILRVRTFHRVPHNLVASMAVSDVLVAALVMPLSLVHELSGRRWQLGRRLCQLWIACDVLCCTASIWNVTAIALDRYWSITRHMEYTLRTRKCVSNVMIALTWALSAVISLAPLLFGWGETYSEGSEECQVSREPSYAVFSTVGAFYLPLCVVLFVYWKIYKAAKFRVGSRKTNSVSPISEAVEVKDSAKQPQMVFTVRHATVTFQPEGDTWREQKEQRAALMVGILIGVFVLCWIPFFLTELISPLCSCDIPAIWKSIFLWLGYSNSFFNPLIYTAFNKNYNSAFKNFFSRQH

Row | SMILES | sigma percent inhibition of specific binding [1] | other results
1 | Fc1ccc2c(c1)CCO[C@H]2[C@@H]1CCN1 [Compound I-90, (S)-2-((R)-6-fluoroisochroman-1-yl)azetidine] | 63% | –
2 | Fc1ccc2c(c1)[C@H]([C@@H]1CCCN1)OCC2 [Compound I-5, (2S)-2-((R)-7-fluoroisochroman-1-yl)pyrrolidine] | – | GABA percent inhibition of specific binding [2]: 57%
3 | Fc1cccc2c1[C@H]([C@@H]1CCN1)OCC2 [Compound I-83, (S)-2-((R)-8-fluoroisochroman-1-yl)azetidine] | – | 5HT5a percent inhibition of specific binding [3]: 58%
4 | Fc1cccc2c1CCO[C@@H]2[C@@H]1CCN1 [Compound I-94, (S)-2-((S)-5-fluoroisochroman-1-yl)azetidine] | sigma (85%) | –
